# Key:
# [1] = tested on: Candida parapsilosis (MY1010); experiment: broth microdilution assay (MIC/MFC); type: cell-based; conditions: Lodderomyces parapsilosis, 24 hours, 35°-37° C.
# Procedure: (§1) In the microbroth dilution assay, microorganisms were selected by streaking a yeast culture on Sabouraud dextrose agar (SDA) and incubating for 24-48 hours at 35°-37° C. Three to five characteristic colonies were selected and transferred to a fresh plate and incubated under similar conditions. From the regrowth, 3 to 5 colonies were selected and suspended in 10 milliliters of YM broth (Difco) and incubated for 4 hours at 35°-37° C. shaking at 225 rpm. The 4 hour broth cultures were adjusted optically to 86% transmission resulting in a concentration of 1-5×10^6 cfu/ml which was further diluted 1:100 in YNBD (yeast nitrogen base with 1% dextrose) to obtain a concentration of 1-5×10^4 cfu/ml for use as inocula.
# (§2) The test compound was dissolved at […] in 10% DMSO and diluted 2× into the first well to achieve a concentration of 256 μg/ml at 5% DMSO in the first well. Compounds are subsequently serially diluted 2× and cell suspension is added to each well resulting in an additional 2× dilution of compound. 75 μl of said solution is delivered to each well in column 1 of a 96-well, U-bottomed plate. The compounds in column 1 were then serially diluted two-fold to yield concentrations from 128 μg/ml to 0.03 μg/ml.
# (§3) The plates containing the diluted compounds were then inoculated with 75 μl/well of the appropriate microorganism and incubated for 48 hours at 35°-37° C. with MIC (minimum inhibitory concentration) determinations carried out after 24 hours of incubation (except Cryptococcus strains which are read at 48 hours). Growth and sterility controls for each organism and sterility checks for the compounds also were carried out.
# (§4) After recording MICs at 24 hours, the microtiter plates were shaken gently to resuspend the cells. A 1.5 μl sample was transferred from each well of the 96-well plate to a single reservoir inoculum plate containing SDA. The inoculated SDA and corresponding microtiter plates were incubated for 24 hours at 35°-37° C. For Cryptococcus neoformans, SDA plates were inoculated at 48 hours after recording MICs and incubated 48 hours before reading the MFC. MFC is the lowest concentration of compound at which either no growth or growth of <4 colonies occur.
# Candida albicans (CA2) = experiment: broth microdilution assay (MIC/MFC); type: cell-based; conditions: 24 hours, 35°-37° C.
# Procedure: as §1, §2, §3, §4
# [2] = tested on: Candida albicans (MY1055); experiment: broth microdilution assay (MIC/MFC); type: cell-based; conditions: 24 hours, 35°-37° C.
# Procedure: as §1, §2, §3, §4
# [3] = tested on: Candida pseudotropicalis (MY2099); experiment: broth microdilution assay (MIC/MFC); type: cell-based; conditions: Kluyveromyces marxianus, 24 hours, 35°-37° C.
# Procedure: as §1, §2, §3, §4
# [4] = tested on: Candida tropicalis (MY1124); experiment: broth microdilution assay (MIC/MFC); type: cell-based; conditions: 24 hours, 35°-37° C.
# Procedure: as §1, §2, §3, §4
# [5] = tested on: Candida guillermondii (MY1019); experiment: broth microdilution assay (MIC/MFC); type: cell-based; conditions: 24 hours, 35°-37° C.
# Procedure: as §1, §2, §3, §4
# [6] = tested on: Candida tropicalis (MY1012); experiment: broth microdilution assay (MIC/MFC); type: cell-based; conditions: 24 hours, 35°-37° C.
# Procedure: as §1, §2, §3, §4
# [7] = tested on: Candida glabrata (MY1381); experiment: broth microdilution assay (MIC/MFC); type: cell-based; conditions: Nakaseomyces glabratus, 24 hours, 35°-37° C.
# Procedure: as §1, §2, §3, §4
# [8] = tested on: Candida albicans (CLY539); experiment: broth microdilution assay (MIC/MFC); type: cell-based; conditions: 24 hours, 35°-37° C.
# Procedure: as §1, §2, §3, §4
# Candida krusei = experiment: broth microdilution assay (MIC/MFC); type: cell-based; conditions: Pichia kudriavzevii, 24 hours, 35°-37° C.
# Procedure: as §1, §2, §3, §4
# [9] = tested on: Cryptococcus neoformans (MY2062); experiment: broth microdilution assay (MIC/MFC); type: cell-based
# Procedure: as §1, §2, §3, §4
# [10] = tested on: Cryptococcus neoformans (MY2061); experiment: broth microdilution assay (MIC/MFC); type: cell-based
# Procedure: as §1, §2, §3, §4
# [11] = tested on: Saccharomyces cerevisiae (MY2140); experiment: broth microdilution assay (MIC/MFC); type: cell-based; conditions: 24 hours, 35°-37° C.
# Procedure: as §1, §2, §3, §4
# panel of fungi = experiment: broth microdilution assay, comparison with amphotericin B; type: cell-based; conditions: MIC and MFC
# Procedure: as §1, with “inocula. […]” for “inocula.”
# as §3, with “Growth and sterility controls for each organism and sterility checks for the compounds also were carried out.” left out
# After recording MICs at 24 hours, the microtiter plates were shaken gently to resuspend the cells. […] For Cryptococcus neoformans, SDA plates were inoculated at 48 hours after recording MICs and incubated 48 hours before reading the MFC. […]
# [12] = interconversion of the two diastereomers; type: physicochemical; conditions: normal temperatures
# [13] = tested on: Aspergillus flavus, Fusarium oxysporum, Ustilago zeae and the like; experiment: agar plate inhibition zone test against filamentous fungi; type: cell-based; conditions: agar plates, methanol solutions, 28° C. or 37° C., 24 hours
# Procedure: The compound is also useful for inhibiting the growth of filamentous fungi. Such use may be illustrated in the following tests with Aspergillus flavus, Fusarium oxysporum, Ustilago zeae and the like. Inocula for filamentous fungi are prepared by scraping the surface of stock plates maintained on potato dextrose agar with a moistened sterile dacron swab. The spores and mycelia are then suspended in 10 milliliters of sterile potato dextrose broth and adjusted to 70 percent transmission at 660 nm. The samples to be tested for production of antifungal agent are applied directly to the agar plates as methanol solutions. When the sample to be tested is crude broth, it may be centrifuged prior to application. The assay plates are then incubated at either 28° C. or 37° C. for 24 hours. Following incubation, the inhibition zones are measured. Effects on growth are also noted as to appearance.
# [14] = tested on: Aspergillus fumigatus (MY4839); experiment: broth microdilution assay (MIC/MEC); type: cell-based; conditions: 24 hours
# Procedure: as §1, §2, §3
# (§5) No MFC values are indicated for Aspergillus fumigatus since colony counts are unreliable with filamentous species. Instead, a Minimum Effective Concentration (MEC) is reported. The MEC is defined as the lowest concentration of drug which effects a severe morphological change in the cells. The MEC is scored macroscopically by direct observation of the plate wells after 24 hours and reflects microscopic alterations in cell morphology (Kurtz et al, AAC 1994 38:1480-1489).
# [15] = tested on: Aspergillus fumigatus (MY5668); experiment: broth microdilution assay (MIC/MEC); type: cell-based; conditions: 24 hours
# Procedure: as §1, §2, §3, §5
# [16] = read-out: MIC (minimum inhibitory concentration)
# [17] = SDA, no growth or <4 colonies, read-out: MFC (minimum fungicidal concentration)
# [18] = SDA inoculated at 48 hours, incubated 48 hours, no growth or <4 colonies, read-out: MFC (minimum fungicidal concentration)
# [19] = read at 48 hours, 35°-37° C., read-out: MIC (minimum inhibitory concentration)
# [20] = 35°-37° C., read-out: MIC (minimum inhibitory concentration)
# [21] = lowest concentration effecting severe morphological change, read-out: MEC (Minimum Effective Concentration)
smiles,measurement,setting,value
CC(=O)OC1CC23C4=CCC5(C)C(C(=O)O)C(C)(C(C)C(C)C)CCC5(C)C4CCC2C(C)(COC3O)C1OC1OC(CO)C(O)C(O)C1O (stereo not drawn) [Compound I],MIC,[1]; [16],0.25 µg/mL
same,MFC,[1]; [17],0.25 µg/mL
same,MIC,Candida albicans (CA2); [16],> 128 µg/mL
same,MFC,Candida albicans (CA2); [17],> 128 µg/mL
same,MIC,[2]; [16],0.5 µg/mL
same,MFC,[2]; [17],0.25 µg/mL
same,MIC,[3]; [16],0.5 µg/mL
same,MFC,[3]; [17],1 µg/mL
same,MIC,[4]; [16],16 µg/mL
same,MFC,[4]; [17],16 µg/mL
same,MIC,[5]; [16],1 µg/mL
same,MFC,[5]; [17],2 µg/mL
same,MIC,[6]; [16],1 µg/mL
same,MFC,[6]; [17],1 µg/mL
same,MIC,[7]; [16],1 µg/mL
same,MFC,[7]; [17],0.5 µg/mL
same,MIC,[8]; [16],0.5 µg/mL
same,MFC,[8]; [17],0.5 µg/mL
same,MIC,Candida krusei; [16],4 µg/mL
same,MFC,Candida krusei; [17],1 µg/mL
same,MFC,[9]; [18],128 µg/mL
same,MIC,[9]; [19],32 µg/mL
same,MFC,[10]; [18],32 µg/mL
same,MIC,[10]; [19],32 µg/mL
same,MIC,[11]; [16],2 µg/mL
same,MFC,[11]; [17],2 µg/mL
same,"effectiveness against a panel of fungi, compared with amphotericin B",panel of fungi,"at concentrations comparable to an established antifungal agent, amphotericin B"
same,reequilibration of separated diastereomers,[12],reequilibrate at normal temperatures
same,inhibition of growth of filamentous fungi,[13],effectively inhibit growth of the fungal organisms
same,MIC,[14]; [20],64 µg/mL
same,minimal effective concentration,[14]; [21],0.031 µg/mL
same,MIC,[15]; [20],32 µg/mL
same,minimal effective concentration,[15]; [21],0.031 µg/mL

# From patent US5756472A, “Antifungal agent obtained from hormonema” (Merck & Co., Inc., priority 1997, dated 1998)
